Reference: patent US20140228407A1, “TETRA-PYRIDINE COMPOUNDS AND COMPOSITION FOR PROTECTING CELLS, TISSUES AND ORGANS AGAINST ISCHEMIA-REPERFUSION INJURY” (YISSUM RESEARCH DEVELOPMENT COMPANY OF THE HEBREW …, priority 2011, published 2014)
Entries after “also recorded” stand apart in the source; their conditions may differ.

Key:
[1] = system: neonate rat cardiomyocyte cells; experiment: Hypoxia in neonatal rat cardiomyocyte cultures, propidium iodide (PI) staining; format: cell-based; details: after 3.5 hours of reoxygenation
Description: Rat hearts (1-2 days old) were sterilely removed and bathed three times in Ca^2+- and Mg^2+-free PBS to remove excess blood cells. The hearts were minced to small fragments and then agitated in a proteolytic enzyme-RDB solution prepared from a fig tree extract as described previously (Brik et al., 1990; Shneyvays et al., 2001). The RDB was diluted 1:200 in PBS at 25° C. for a few cycles of 10 min each. The supernatant suspension containing dissociated cells, to which medium containing 10% horse serum was added, was centrifuged at 500 g for 5 min. After centrifugation, the supernatant phase was discarded, and cells were resuspended in Dulbecco's modified Eagle medium supplemented with 10% heat-inactivated horse serum and 0.5% chick embryo extract. […]
Cultured cardiomyocytes were incubated with propidium iodide (5 μg/ml) (Molecular Probes, Eugene, Oreg.) in PBS for 30 min at 37° C., and propidium iodide (PI) staining was performed by incubating the cells with PI (5 μg/ml) (Molecular Probes, Eugene, Oreg.) in PBS for 30 min at 37° C. in order to differentiate between dead and survived cells following hypoxia (PI-fluorescent stain only nucleus of damaged cardiomyocytes). Thereafter, cells were bathed with PBS twice, and the cell fluorescence was measured through excitation at 485 nm and emission at 635 nm. […]

[2] = system: model of ischemia/reperfusion in the CD rat; experiment: Rat model of ischemia/reperfusion, cardiac Troponin I concentration (Phase B); format: in vivo; details: 0.2 and 2.0 mg/kg; prior to termination; not statistically different
Description: This study was conducted to evaluate the effects of the Compound #6 on cardiac function, infarct size, and Troponin I levels in a model of ischemia/reperfusion in the CD® (CR1CD® (SD)) rat. Phase A was conducted for toxicity evaluation purposes. In Phase B (the efficacy phase), two treatment groups of eight male rats were administered Compound #6 at dose levels of 0.2 and 2 mg/kg via intravenous infusion following myocardial infarction. The 2 mg/kg dose of Compound #6 was administered intravenously via a slow infusion starting 3 to 14 minutes prior to reperfusion and continuing for 20 minutes to 20 minutes and 32 seconds, which was approximately 6 to 17 minutes after reperfusion (depending on the infusion start time). The 0.2 mg/kg dose of Compound #6 was administered intravenously via a slow infusion starting 10 minutes prior to reperfusion and continuing for 30 minutes to 30 minutes and 30 seconds, which was approximately 20 minutes after reperfusion.
The animals in Phase B were monitored for selected cardiovascular endpoints from at least 15 minutes prior to acute myocardial infarction until at approximately 1 hour post reperfusion. […]
In Phase B, cardiac troponin I evaluations were conducted at 3 to 54 minutes prior to coronary artery occlusion and prior to termination on all animals. […] The samples were stored frozen at −50 to −90° C. until analyzed.

## Cc1ccc(CN(CCN(Cc2ccc(C)cn2)Cc2ccc(C)cn2)Cc2ccc(C)cn2)nc1 [Compound #6]
[1]; 100 nM
  protection by PI staining, 100 nM versus other concentrations of the same compound: improve protection vs. other #6 concentrations
[1]; all concentrations 1 μM, 300 nM, 100 nM and 30 nM
  protection from hypoxic injury by PI nuclei staining compared with 1 μM TPEN, FIG. 1B: better protection than 1 μM of TPEN
[2]
  Troponin I (TnI) levels versus saline and vehicle control animals: substantially lower TnI levels than both saline and vehicle control animals; also recorded: substantially lower, but not significantly lower
